Data on one molecule can be found in patent publication US11633421B2, “Use of NAD precursors for improving maternal health and/or offspring health” (UNIVERSITY OF IOWA RESEARCH FOUNDATION, priority 2016, dated 2023).

Molecules are shown by their SMILES.

Common to all, as to type: in vivo, mice
Assay [1] in a line: Body composition of adult offspring. The following applies: 90 days old. The procedure: FIGS. 23A-C. 69 days after their mother's intervention, 90 day-old adult offspring of NR-supplemented mothers have less fat mass. The order of the bars from left to right are: males of normal chow (NC) mothers (white with light grey outline), followed by males of NR-supplemented mothers (filled light grey), followed by females of NC mothers (white with dark grey outline), followed by females of NR-supplemented mothers (filled dark grey). At 90 days old, body composition analysis was performed on the mice. […] There is no effect on the total amount of lean mass (23C). Particularly because the maternal intervention produced somewhat bigger weanlings with more fat and lean mass, the protection against age-induced weight gain was unanticipated.

A short description of assay [2]: Balance beam test of offspring. The conditions noted are these: 85 days old male and female offspring. The source says:
FIGS. 22A-C. 64 days after their mother's intervention, 85-day-old adults of NR-supplemented mothers have better performance on a balance beam. They cross a beam balance faster (untrained); they slip fewer times; and they almost never grip the beam with their tail. […] The order of the bars from left to right are: males of normal chow (NC) mothers (white with light grey outline), followed by males of NR-supplemented mothers (filled light grey), followed by females of NC mothers (white with dark grey outline), followed by females of NR-supplemented mothers (filled dark grey). The improved physical functions of adult offspring of NR-supplemented mothers were not confined to advantages in making less anxious choices about where to move in space, light and dark. At 85 days old, when mice were again 64 days past their mother's intervention—again all mice were on NC show for 64 days—their untrained ability to cross a balance beam was tested. […] This was not anticipated.

For assay [3], the system named is brain derived neurotrophic factor (BDNF). The assay can be described thus: BDNF in milk. The conditions noted are these: NR-supplemented mothers. The procedure:
FIG. 10. NR supplemented mothers produce milk with higher brain-derived neurotrophic factor. Milk from NC and NR mothers was tested. […] Based on the advanced brain and neurobehavioral development that was observed, it was investigated whether NR-supplemented mothers produced more BDNF in their milk.

Assay [4] in a line: Elevated plus maze test of offspring. The following applies: 85 day old adult offspring; males reached statistical significance. The source says: Males are not afraid to “stick their head out”. The order of the bars from left to right are: males of normal chow (NC) mothers (white with light grey outline), followed by males of NR-supplemented mothers (filled light grey), followed by females of NC mothers (white with dark grey outline), followed by females of NR-supplemented mothers (filled dark grey). At 64 days past the mother's intervention, the willingness of 85 day old adult offspring of mice from this experiment (NC or NR-supplemented) to put their heads out in an elevated plus maze was tested. […] The clear indication is that maternal NR produces improvements in maternal behavior and/or qualitative and/or quantitative improvements in lactation sufficient to improve the development and health of offspring. The ability of the mother's 21 day micronutrition to produce beneficial effects on her offspring into adulthood was not at all anticipated.

The test system of assay [5] is NAD biosynthetic genes in the mammary glands. The assay can be described thus: Mammary NAD biosynthetic gene expression and NAD metabolites. The source says: FIGS. 12A-D. Lactation and NR boost the mammary NAD program. FIG. 12A. NR promotes expression of NAD biosynthetic genes in the mammary glands. FIG. 12B. […] FIG. 12C. Lactation boosts NMN in mammary. FIG. 12D. Lactation and NR boost mammary NR in an additive manner. […] As shown in FIGS. 12B-12C, maternal NAD and NMN are elevated in the mammary of lactating mammary with respect to nonlactating mammary tissue.

A short description of assay [6]: Offspring body composition, brain mass and activity at weaning (Example 1). The procedure:
Female C57BL/6N mice were raised in 12 hour light:dark cycles on Teklad 2920X chow (NC). For 12 weeks prior to mating with a single C57BL/6N male, females were on either NC (n=4) or NC+NR (n=4). Females were maintained on the same diet through gestation and weaning, which was at 21 days after birth. […] The improved body composition of mice from NR-supplemented mothers was entirely unexpected.

As to `NC(=O)c1ccc[n+]([C@@H]2O[C@H](CO)[C@@H](O)[C@H]2O)c1` [NR, nicotinamide riboside], the “total amount of lean mass of adult offspring” value in assay [1] is recorded as “no effect”. Further, the “body size of adult offspring” value in assay [1] (male offspring) is on record as “slightly smaller”. For the same molecule, in assay [1] (males and females, 69 days after mother's intervention), the “adipose tissue of adult offspring” value was “less adipose tissue”. In addition, in assay [2], the “slips on balance beam” value was “fewer slips”, the “time to cross a balance beam (untrained)” value was “cross faster” and the “use of tail to grip the balance beam” value is recorded as “virtually no use of their tails”. Moreover, the “concentration of BDNF in the milk vs non-supplemented mothers” value in assay [3] came out at 2 fold. Besides, the “willingness to put heads out in an elevated plus maze” value in assay [4] is recorded as “higher willingness”. Further, the “mammary NR” value in assay [5] (lactating female mouse, above level in lactating female) was “large increase”. Moreover, the “mammary NAD+ levels” value in assay [5] (lactating mammary gland, NR supplementation) is on record as “tends to further increase”. Besides, in assay [5] (mother supplemented with NR), the “expression of NAD biosynthetic genes in lactating mammary” value is recorded as “very high level of expression”. For the same molecule, the “physical activity of fasted neonates” value in assay [6] (NR in the diet of female mice) is “greater physical activity”. In assay [6] (at weaning), the “body composition (fat mass) of mice raised by NR-supplemented mothers” value is “leaner” and the “brain mass of mice raised by NR-supplemented mothers” value is recorded as “tend toward larger brains”.
